Test results: patent US12528802B2, “Heterocyclic compound” (Takeda Pharmaceutical Company Limited, priority 2019, dated 2026)

biological target: T1, glucosylceramide synthase (Homo sapiens, UniProt Q16739); experiment: Glucosylceramide synthase (GCS) enzyme assay, microsome fraction, C8 glucosylceramide quantified by Rapidfire MS/MS; assay type: biochemical; conditions: test compound 10 μM; 1.7 μM UDP-glucose, 3 μM C8 ceramide; room temperature 60 min; read-out: GCS enzyme inhibitory rate at 10 μM (%) (% of control)
T1 construct: made in house; host or cells: Expi293F cells (transient expression, pcDNA3.3-TOPO vector); microsome fraction used as enzyme source
T1 sequence (Q16739 1-394): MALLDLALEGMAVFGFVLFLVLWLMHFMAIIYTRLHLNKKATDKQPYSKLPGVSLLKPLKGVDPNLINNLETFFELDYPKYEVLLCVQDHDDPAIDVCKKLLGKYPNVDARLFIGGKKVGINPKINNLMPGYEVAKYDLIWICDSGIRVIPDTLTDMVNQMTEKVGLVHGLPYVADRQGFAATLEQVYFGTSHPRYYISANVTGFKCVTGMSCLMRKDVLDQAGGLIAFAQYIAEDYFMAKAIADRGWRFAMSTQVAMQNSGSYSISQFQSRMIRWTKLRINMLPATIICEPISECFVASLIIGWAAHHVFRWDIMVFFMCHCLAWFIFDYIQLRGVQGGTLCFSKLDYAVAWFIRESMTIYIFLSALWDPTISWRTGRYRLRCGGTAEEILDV
In short: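 Test compound, 10 μM final, was run against human GCS from transfected Expi293F microsome fractions, using substrate solution of 6 μM C8 ceramide (in DOPC liposomes) plus 3.4 μM UDP-glucose, pH 7.5 Tris buffer, 60 min, room temperature. Product C8 glucosylceramide measured by Rapidfire MS/MS against an internal standard, % inhibition referenced to no-enzyme and DMSO wells.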

Row | inhibition at 10 µM | SMILES
1 | 99% | CC(C)(C#N)c1ccc(N2Cc3c(ccnc3-c3ccc(F)cc3OCC(F)(F)F)C2=O)cc1 [Example 269, 2-(4-{4-[4-fluoro-2-(2,2,2-trifluoroethoxy)phenyl]-1-oxo-1,3-dihydro-2H-pyrrolo[3,4-c]pyridin-2-yl}phenyl)-2-methylpropanenitrile]
2 | 99% | O=C1c2ccnc(-c3ccc(F)cc3OCC(F)(F)F)c2CN1c1ccc(C(O)(C(F)(F)F)C(F)(F)F)cc1 [Example 270, 4-[4-fluoro-2-(2,2,2-trifluoroethoxy)phenyl]-2-[4-(1,1,1,3,3,3-hexafluoro-2-hydroxypropan-2-yl)phenyl]-2,3-dihydro-1H-pyrrolo[3,4-c]pyridin-1-one]
3 | 100% | N#CC1(c2ccc(N3Cc4c(ccnc4-c4ccccc4OCC(F)(F)F)C3=O)cc2)CC1 [Example 271, 1-(4-{1-oxo-4-[2-(2,2,2-trifluoroethoxy)phenyl]-1,3-dihydro-2H-pyrrolo[3,4-c]pyridin-2-yl}phenyl)cyclopropane-1-carbonitrile]
4 | 96% | CC(C)(O)c1ccc(N2Cc3c(ccnc3-c3ccncc3OCC(F)(F)F)C2=O)cc1F [Example 272, 2-[3-fluoro-4-(2-hydroxypropan-2-yl)phenyl]-4-[3-(2,2,2-trifluoroethoxy)pyridin-4-yl]-2,3-dihydro-1H-pyrrolo[3,4-c]pyridin-1-one]
5 | 94% | CC(C)(O)C(F)(F)c1ccc(N2Cc3c(ccnc3-c3ccncc3OCC(F)(F)F)C2=O)cc1 [Example 283, 2-[4-(1,1-difluoro-2-hydroxy-2-methylpropyl)phenyl]-4-[3-(2,2,2-trifluoroethoxy)pyridin-4-yl]-2,3-dihydro-1H-pyrrolo[3,4-c] pyridin-1-one]
6 | 79% | CC(C)(O)C(F)(F)c1ccc(N2Cc3c(ccnc3-c3ccc(F)cc3OCC(F)(F)F)C2=O)cn1 [Example 291, 2-[6-(1,1-difluoro-2-hydroxy-2-methylpropyl)pyridin-3-yl]-4-[4-fluoro-2-(2,2,2-trifluoroethoxy)phenyl]-2,3-dihydro-1H-pyrrolo[3,4-c]pyridin-1-one]
7 | 92% | N#CC1(c2ccc(N3Cc4c(ccnc4-c4ccc(F)cc4OCC(F)F)C3=O)cc2)CC1 [Example 302, 1-(4-{4-[2-(2,2-difluoroethoxy)-4-fluorophenyl]-1-oxo-1,3-dihydro-2H-pyrrolo[3,4-c]pyridin-2-yl}phenyl) cyclopropane-1-carbonitrile]
8 | 100% | CC(C)(C#N)c1ccc(N2Cc3c(ccnc3-c3ccc(F)cc3OCC(F)F)C2=O)cc1 [Example 303, 2-(4-{4-[2-(2,2-difluoroethoxy)-4-fluorophenyl]-1-oxo-1,3-dihydro-2H-pyrrolo[3,4-c]pyridin-2-yl}phenyl)-2-methylpropanenitrile]
9 | 99% | CC(C)(O)Cc1ccc(N2Cc3c(ccnc3-c3ccc(F)cc3OCC(F)(F)F)C2=O)cc1 [Example 305, 4-[4-fluoro-2-(2,2,2-trifluoroethoxy)phenyl]-2-[4-(2-hydroxy-2-methylpropyl)phenyl]-2,3-dihydro-1H-pyrrolo[3,4-c]pyridin-1-one]

Second part, the compound before the results:

Row | SMILES | inhibition at 10 µM
10 | CC(C)(O)c1ccc(N2Cc3c(ccnc3-c3ccccc3OCC(F)(F)F)C2=O)nc1 [Example 273, 2-[5-(2-hydroxypropan-2-yl)pyridin-2-yl]-4-[2-(2,2,2-trifluoroethoxy)phenyl]-2,3-dihydro-1H-pyrrolo [3,4-c]pyridin-1-one] | 100%
11 | CC(C)(O)c1ccc(N2Cc3c(ccnc3-c3ccc(F)cc3OCC(F)F)C2=O)cc1F [Example 274, 4-[2-(2,2-difluoroethoxy)-4-fluorophenyl]-2-[3-fluoro-4-(2-hydroxypropan-2-yl)phenyl]-2,3-dihydro-1H-pyrrolo[3,4-c]pyridin-1-one] | 97%
12 | CC(C)(O)c1ccc(N2Cc3c(ccnc3-c3ccncc3OCC(F)(F)F)C2=O)nc1 [Example 275, 2-[5-(2-hydroxypropan-2-yl)pyridin-2-yl]-4-[3-(2,2,2-trifluoroethoxy)pyridin-4-yl]-2,3-dihydro-1H-pyrrolo [3,4-c]pyridin-1-one] | 94%
13 | O=C1c2ccnc(-c3ccncc3OCC(F)(F)F)c2CN1c1ccc(C(O)(C(F)F)C(F)F)cc1 [Example 284, 2-[4-(1,1,3,3-tetrafluoro-2-hydroxypropan-2-yl)phenyl]-4-[3-(2,2,2-trifluoroethoxy)pyridin-4-yl]-2,3-dihydro-1H-pyrrolo[3,4-c] pyridin-1-one] | 99%
14 | O=C1c2ccnc(-c3ccncc3OCC(F)(F)F)c2CN1c1ccc(C2(O)CC(F)(F)C2)c(F)c1 [Example 287, 2-[4-(3,3-difluoro-1-hydroxycyclobutyl)-3-fluorophenyl]-4-[3-(2,2,2-trifluoroethoxy)pyridin-4-yl]-2,3-dihydro-1H-pyrrolo[3,4-c] pyridin-1-one] | 99%
15 | CC(C)(O)c1ccc(N2Cc3c(ccnc3-c3ccccc3OCC(F)F)C2=O)nc1 [Example 288, 4-[2-(2,2-difluoroethoxy)phenyl]-2-[5-(2-hydroxypropan-2-yl)pyridin-2-yl]-2,3-dihydro-1H-pyrrolo [3,4-c]pyridin-1-one] | 99%
16 | CC(C)(O)c1ccc(N2Cc3c(ccnc3-c3ccc(F)cc3OCC(F)F)C2=O)nc1 [Example 289, 4-[2-(2,2-difluoroethoxy)-4-fluorophenyl]-2-[5-(2-hydroxypropan-2-yl)pyridin-2-yl]-2,3-dihydro-1H-pyrrolo [3,4-c]pyridin-1-one] | 98%
17 | O=C1c2ccnc(-c3ccccc3OCC(F)F)c2CN1c1ccc(C2(O)CCC2)cc1 [Example 290, 4-[2-(2,2-difluoroethoxy)phenyl]-2-[4-(1-hydroxycyclobutyl)phenyl]-2,3-dihydro-1H-pyrrolo[3,4-c] pyridin-1-one] | 100%
18 | O=C1c2ccnc(-c3ccncc3OCC(F)(F)F)c2CN1c1ccc(C2(F)COC2)cc1 [Example 294, 2-[4-(3-fluorooxetan-3-yl)phenyl]-4-[3-(2,2,2-trifluoroethoxy)pyridin-4-yl]-2,3-dihydro-1H-pyrrolo [3,4-c]pyridin-1-one] | 99%
19 | CC(C)(O)COc1ccc(N2Cc3c(ccnc3-c3ccccc3OCC(F)(F)F)C2=O)nc1 [Example 297, 2-[5-(2-hydroxy-2-methylpropoxy)pyridin-2-yl]-4-[2-(2,2,2-trifluoroethoxy)phenyl]-2,3-dihydro-1H-pyrrolo[3,4-c]pyridin-1-one] | 100%
20 | CC(C)(O)COc1cnc(N2Cc3c(ccnc3-c3ccccc3OCC(F)(F)F)C2=O)cn1 [Example 298, 2-[5-(2-hydroxy-2-methylpropoxy)pyrazin-2-yl]-4-[2-(2,2,2-trifluoroethoxy)phenyl]-2,3-dihydro-1H-pyrrolo[3,4-c]pyridin-1-one] | 98%
21 | CC(C)(O)COc1cnc(N2Cc3c(ccnc3-c3ccc(F)cc3OCC(F)(F)F)C2=O)cn1 [Example 299, 4-[4-fluoro-2-(2,2,2-trifluoroethoxy)phenyl]-2-[5-(2-hydroxy-2-methylpropoxy)pyrazin-2-yl]-2,3-dihydro-1H-pyrrolo [3,4-c]pyridin-1-one] | 97%
22 | N#CC1(c2ccc(N3Cc4c(ccnc4-c4ccccc4OCC(F)F)C3=O)cc2)CC1 [Example 304, 1-(4-{4-[2-(2,2-difluoroethoxy)phenyl]-1-oxo-1,3-dihydro-2H-pyrrolo[3,4-c]pyridin-2-yl}phenyl) cyclopropane-1-carbonitrile] | 99%
